In US6632963B1, “Bicyclic aromatic compounds and pharmaceutical/cosmetic compositions comprised thereof” (Galderma Research & Development S.N.C., priority 1998, dated 2003):

Tests used:
RXRα [1] = target: T1, RXRα (Homo sapiens, UniProt P19793); experiment: RXRα transactivation, agonist activity; assay type: cell-based
T1 sequence (P19793 1-462): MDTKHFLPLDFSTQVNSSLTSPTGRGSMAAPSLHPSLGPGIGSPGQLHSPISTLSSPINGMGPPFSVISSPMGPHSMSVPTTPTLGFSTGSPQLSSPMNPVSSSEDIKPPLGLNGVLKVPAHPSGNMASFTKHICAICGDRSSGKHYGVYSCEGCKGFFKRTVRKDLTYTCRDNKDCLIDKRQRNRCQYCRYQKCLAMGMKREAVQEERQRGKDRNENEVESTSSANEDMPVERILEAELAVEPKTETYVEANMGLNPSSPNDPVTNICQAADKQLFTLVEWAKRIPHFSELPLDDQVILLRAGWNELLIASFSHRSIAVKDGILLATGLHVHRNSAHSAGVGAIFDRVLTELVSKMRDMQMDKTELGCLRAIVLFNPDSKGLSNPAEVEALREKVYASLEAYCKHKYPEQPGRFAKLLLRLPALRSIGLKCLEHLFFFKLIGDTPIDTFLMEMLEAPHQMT
From the text: The binding and transactivation properties as RXR-receptor agonists can be determined by methods known in the art, such as, for example: Levin et al., Nature, 355, 359-61 (1992); Allenby et al., Proc. Natl. Acad. Sci., 90, 30-4 (1993).

RXRα [2] = target: T1, RXRα; experiment: cell-based

Compound | melting point | AC50 (RXRα [1]) | IC50 (RXRα [2]) | RXRα transactivation Agonist AC50 (nM) (RXRα [1])
COCOc1c(-c2cccc(C=CC(=O)O)c2)ccc2c1C(C)(C)CCC2(C)C | 188 to 189 °C | – | – | –
COc1c(-c2cccc(C=CC(=O)O)c2)cc(C(C)(C)C)cc1C(C)(C)C [Compound 1, 3-(3′,5′-di-tert-Butyl-2′-methoxy-3-biphenylyl)acrylic Acid] | – | 384 nM | – | –
CC(C)(C)c1cc(-c2cc(C=CC(=O)O)ccc2O)c(OCc2ccccc2)c(C(C)(C)C)c1 [Compound 2, 3-(2′-Benzyloxy-3′,5′-di-tert-butyl-6-hydroxy-3-biphenylyl)acrylic Acid] | – | – | 920 nM | inactive
CCCCCOc1c(-c2cc(C=CC(=O)O)ccc2O)cc(C(C)(C)C)cc1C(C)(C)C [Compound 3, 3-(3′,5′-di-tert-Butyl-6-hydroxy-2′-pentyloxy-3-biphenylyl)acrylic Acid] | – | – | 729 nM | inactive
COc1c(-c2cc(C=CC(=O)O)ccc2O)cc(C(C)(C)C)cc1C(C)(C)C [Compound 4, 3-(3′,5′-di-tert-Butyl-6-hydroxy-2′-methoxy-3-biphenylyl)acrylic Acid] | – | 165 nM | – | –
COCOc1ccc(C=CC(=O)O)cc1-c1cc2c(cc1OCc1ccccc1)C(C)(C)CCC2(C)C [Compound 5, 3-[3-(3-Benzyloxy-5,5,8,8-tetramethyl-5,6,7,8-tetrahydro-2-naphthyl)-4-methoxymethoxyphenyl]acrylic Acid] | – | – | 4000 nM | inactive
CC1(C)CCC(C)(C)c2cc(-c3cc(C=CC(=O)O)ccc3O)c(OCc3ccccc3)cc21 [Compound 6, 3-[3-(3-Benzyloxy-5,5,8,8-tetramethyl-5,6,7,8-tetrahydro-2-naphthyl)-4-hydroxyphenyl]acrylic Acid] | – | – | 505 nM | inactive
COCOc1ccc(C#CC(=O)O)cc1-c1cc2c(cc1C)C(C)(C)CCC2(C)C [Compound 7, [4-Methoxymethoxy-3-(3,5,5,8,8-pentamethyl-5,6,7,8-tetrahydro-2-naphthyl)phenyl]propynoic Acid] | – | 32 nM | – | –
CCCOc1cc2c(cc1-c1cc(C=CC(=O)O)ccc1OCOC)C(C)(C)CCC2(C)C [Compound 8, 3-[3-(3-Propyloxy-5,5,8,8-tetramethyl-5,6,7,8-tetrahydro-2-naphthyl)-4-methoxymethoxyphenyl]acrylic Acid] | – | – | 1100 nM | inactive
CCCCCOc1cc2c(cc1-c1cc(C=CC(=O)O)ccc1OCOC)C(C)(C)CCC2(C)C [Compound 9, 3-[3-(3-Pentyloxy-5,5,8,8-tetramethyl-5,6,7,8-tetrahydro-2-naphthyl)-4-methoxymethoxyphenyl]acrylic Acid] | – | – | 631 nM | inactive
